Experimental data published in the NIST ThermoML archive (doi:10.1016/j.jct.2005.10.019).
Numbers after ± are expanded uncertainties.

What was measured:
[1] = excess molar enthalpy (molar enthalpy of mixing); xn = mol fraction of the nth substance listed; details: 298.15 K, 101 kPa, Liquid
[2] = 298.15 K; 101.33 kPa; Liquid

C[C@@H]1COC(=O)O1 [(R)-4-methyl-1,3-dioxolan-2-one] + C[C@H]1COC(=O)O1
[1]
Details | excess molar enthalpy [kcal/mol]
x2 = 0.02206 | -0.000169 ± 0.00012
x2 = 0.04317 | -0.000327 ± 0.000122
x2 = 0.06338 | -0.00048 ± 0.000122
x2 = 0.06919 | -0.00046 ± 0.000122
x2 = 0.08276 | -0.000615 ± 0.000122
x2 = 0.1014 | -0.000734 ± 0.000124
x2 = 0.1192 | -0.000848 ± 0.000124
x2 = 0.1294 | -0.000859 ± 0.000124
x2 = 0.1364 | -0.000953 ± 0.000124
x2 = 0.1529 | -0.00105 ± 0.000124
x2 = 0.1688 | -0.00114 ± 0.000124
x2 = 0.1823 | -0.00115 ± 0.000124
x2 = 0.1841 | -0.00122 ± 0.000127
x2 = 0.1988 | -0.00129 ± 0.000127
x2 = 0.213 | -0.00136 ± 0.000127
x2 = 0.2268 | -0.00142 ± 0.000127
x2 = 0.2292 | -0.00143 ± 0.000127
x2 = 0.2709 | -0.00163 ± 0.000127
x2 = 0.3084 | -0.0017 ± 0.000129
x2 = 0.3422 | -0.00178 ± 0.000129
x2 = 0.3673 | -0.00185 ± 0.000129
x2 = 0.3729 | -0.00186 ± 0.000129
x2 = 0.3988 | -0.00191 ± 0.000129
x2 = 0.4008 | -0.00191 ± 0.000129
x2 = 0.4264 | -0.00196 ± 0.000129
x2 = 0.4363 | -0.00197 ± 0.000129
x2 = 0.4366 | -0.00198 ± 0.000129
x2 = 0.4627 | -0.00203 ± 0.000129
x2 = 0.4815 | -0.00201 ± 0.000129
x2 = 0.4921 | -0.00205 ± 0.000129
x2 = 0.5254 | -0.00205 ± 0.000129
x2 = 0.5372 | -0.00199 ± 0.000129
x2 = 0.5551 | -0.002 ± 0.000129
x2 = 0.5959 | -0.00197 ± 0.000129
x2 = 0.6186 | -0.00195 ± 0.000129
x2 = 0.6431 | -0.00192 ± 0.000129
x2 = 0.6596 | -0.00184 ± 0.000129
x2 = 0.6697 | -0.00184 ± 0.000129
x2 = 0.6985 | -0.00176 ± 0.000129
x2 = 0.699 | -0.0017 ± 0.000129
x2 = 0.7209 | -0.00166 ± 0.000127
x2 = 0.73 | -0.00162 ± 0.000127
x2 = 0.7641 | -0.00146 ± 0.000127
x2 = 0.7644 | -0.00151 ± 0.000127
x2 = 0.7782 | -0.0014 ± 0.000127
x2 = 0.7929 | -0.00133 ± 0.000127
x2 = 0.7949 | -0.00133 ± 0.000127
x2 = 0.7997 | -0.00129 ± 0.000127
x2 = 0.8022 | -0.00132 ± 0.000127
x2 = 0.8081 | -0.00126 ± 0.000127
x2 = 0.8122 | -0.00124 ± 0.000127
x2 = 0.8228 | -0.00114 ± 0.000124
x2 = 0.8239 | -0.00118 ± 0.000124
x2 = 0.8252 | -0.00118 ± 0.000124
x2 = 0.8385 | -0.00111 ± 0.000124
x2 = 0.8404 | -0.00109 ± 0.000124
x2 = 0.8439 | -0.00109 ± 0.000124
x2 = 0.8522 | -0.00104 ± 0.000124
x2 = 0.8575 | -0.000996 ± 0.000124
x2 = 0.8665 | -0.000943 ± 0.000124
x2 = 0.8753 | -0.00089 ± 0.000124
x2 = 0.8812 | -0.000858 ± 0.000124
x2 = 0.8857 | -0.000833 ± 0.000124
x2 = 0.8902 | -0.000801 ± 0.000124
x2 = 0.8939 | -0.000772 ± 0.000124
x2 = 0.8964 | -0.000764 ± 0.000124
x2 = 0.9121 | -0.00066 ± 0.000122
x2 = 0.9133 | -0.000646 ± 0.000122
x2 = 0.9285 | -0.000551 ± 0.000122
x2 = 0.9335 | -0.000502 ± 0.000122
x2 = 0.9419 | -0.00044 ± 0.000122
x2 = 0.9454 | -0.000425 ± 0.000122
x2 = 0.9547 | -0.00035 ± 0.000122
x2 = 0.9629 | -0.000295 ± 0.000122
x2 = 0.9768 | -0.000184 ± 0.00012
x2 = 0.9811 | -0.000151 ± 0.00012

C[C@@H](O)c1ccccc1 [(R)-(+)-1-phenylethanol]
Details | mass density [kg/m3]
[2] | 1012.4 ± 1.1

C[C@@H](NCc1ccccc1)c1ccccc1 [(R)-(+)-N-benzyl-1-phenylethylamine]
Details | mass density [kg/m3]
[2] | 1007.7 ± 0.2

C[C@@H](N)c1ccccc1 [(R)-(+)-α-methylbenzylamine]
Details | mass density [kg/m3]
[2] | 965.38 ± 0.16

C[C@H]1COC(=O)O1 [(S)-4-methyl-1,3-dioxolan-2-one]
Details | mass density [kg/m3]
[2] | 1199.5 ± 0.3

C[C@H](O)c1ccccc1 [(S)-(-)-1-phenylethanol]
Details | mass density [kg/m3]
[2] | 1012.3 ± 1.1

C[C@H](O)c1ccccc1 [(S)-(-)-1-phenylethanol] + C[C@@H](O)c1ccccc1
[1]
Details | excess molar enthalpy [kcal/mol]
x1 = 0.07558 | 0.000755 ± 0.000131
x1 = 0.09137 | 0.000905 ± 0.000134
x1 = 0.1405 | 0.00127 ± 0.000134
x1 = 0.1675 | 0.0015 ± 0.000136
x1 = 0.197 | 0.00168 ± 0.000136
x1 = 0.2318 | 0.00184 ± 0.000136
x1 = 0.2464 | 0.00196 ± 0.000139
x1 = 0.2869 | 0.00213 ± 0.000139
x1 = 0.2902 | 0.00216 ± 0.000139
x1 = 0.3291 | 0.0023 ± 0.000139
x1 = 0.3346 | 0.0023 ± 0.000139
x1 = 0.364 | 0.00241 ± 0.000141
x1 = 0.3763 | 0.0024 ± 0.000141
x1 = 0.3954 | 0.00247 ± 0.000141
x1 = 0.4131 | 0.00246 ± 0.000141
x1 = 0.4239 | 0.00251 ± 0.000141
x1 = 0.4458 | 0.0025 ± 0.000141
x1 = 0.4498 | 0.00253 ± 0.000141
x1 = 0.4751 | 0.00252 ± 0.000141
x1 = 0.4753 | 0.00249 ± 0.000141
x1 = 0.497 | 0.00252 ± 0.000141
x1 = 0.5014 | 0.00252 ± 0.000141
x1 = 0.5208 | 0.00254 ± 0.000141
x1 = 0.5252 | 0.00251 ± 0.000141
x1 = 0.5469 | 0.0025 ± 0.000141
x1 = 0.547 | 0.00253 ± 0.000141
x1 = 0.5668 | 0.00252 ± 0.000141
x1 = 0.576 | 0.00251 ± 0.000141
x1 = 0.5993 | 0.00251 ± 0.000141
x1 = 0.6083 | 0.00247 ± 0.000141
x1 = 0.6357 | 0.00241 ± 0.000141
x1 = 0.6443 | 0.00238 ± 0.000141
x1 = 0.6768 | 0.00229 ± 0.000139
x1 = 0.6849 | 0.00227 ± 0.000139
x1 = 0.7235 | 0.00214 ± 0.000139
x1 = 0.731 | 0.00209 ± 0.000139
x1 = 0.7773 | 0.0019 ± 0.000139
x1 = 0.7837 | 0.00183 ± 0.000136
x1 = 0.8396 | 0.00144 ± 0.000136
x1 = 0.8446 | 0.00149 ± 0.000136
x1 = 0.9128 | 0.000857 ± 0.000134
x1 = 0.9158 | 0.000837 ± 0.000134

C[C@H](N)c1ccccc1 [(S)-(-)-αmethylbenzylamine]
Details | mass density [kg/m3]
[2] | 965.49 ± 0.16

C[C@H](N)c1ccccc1 [(S)-(-)-αmethylbenzylamine] + C[C@@H](N)c1ccccc1
[1]
Details | excess molar enthalpy [kcal/mol]
x1 = 0.0173 | 0.000147 ± 0.00012
x1 = 0.03401 | 0.000288 ± 0.000122
x1 = 0.05015 | 0.000417 ± 0.000122
x1 = 0.06577 | 0.000537 ± 0.000122
x1 = 0.08089 | 0.000641 ± 0.000122
x1 = 0.09552 | 0.000748 ± 0.000124
x1 = 0.1097 | 0.000848 ± 0.000124
x1 = 0.1234 | 0.000939 ± 0.000124
x1 = 0.1368 | 0.00102 ± 0.000124
x1 = 0.1408 | 0.00107 ± 0.000124
x1 = 0.1497 | 0.0011 ± 0.000124
x1 = 0.1622 | 0.00119 ± 0.000124
x1 = 0.1744 | 0.00126 ± 0.000127
x1 = 0.1862 | 0.00133 ± 0.000127
x1 = 0.2469 | 0.00163 ± 0.000127
x1 = 0.3297 | 0.00195 ± 0.000129
x1 = 0.384 | 0.00208 ± 0.000129
x1 = 0.4161 | 0.00213 ± 0.000131
x1 = 0.4539 | 0.00216 ± 0.000131
x1 = 0.555 | 0.00216 ± 0.000131
x1 = 0.6244 | 0.00208 ± 0.000129
x1 = 0.7138 | 0.00181 ± 0.000129
x1 = 0.8027 | 0.00132 ± 0.000127
x1 = 0.815 | 0.00125 ± 0.000127
x1 = 0.841 | 0.0011 ± 0.000124
x1 = 0.8546 | 0.00102 ± 0.000124
x1 = 0.8686 | 0.000935 ± 0.000124
x1 = 0.8831 | 0.00084 ± 0.000124
x1 = 0.8981 | 0.00074 ± 0.000124
x1 = 0.9136 | 0.000631 ± 0.000122
x1 = 0.9297 | 0.000527 ± 0.000122
x1 = 0.9463 | 0.000409 ± 0.000122
x1 = 0.9636 | 0.000273 ± 0.000122
x1 = 0.9814 | 0.000116 ± 0.00012

C[C@H](NCc1ccccc1)c1ccccc1 [(S)-N-benzyl-1-phenylethylamine]
Details | mass density [kg/m3]
[2] | 1007.9 ± 0.2

C[C@H](NCc1ccccc1)c1ccccc1 [(S)-N-benzyl-1-phenylethylamine] + C[C@@H](NCc1ccccc1)c1ccccc1
[1]
Details | excess molar enthalpy [kcal/mol]
x1 = 0.05697 | -0.000214 ± 0.000122
x1 = 0.09481 | -0.00033 ± 0.000122
x1 = 0.1905 | -0.000609 ± 0.000122
x1 = 0.2961 | -0.000821 ± 0.000124
x1 = 0.4009 | -0.000962 ± 0.000124
x1 = 0.5331 | -0.00102 ± 0.000124
x1 = 0.5712 | -0.00101 ± 0.000124
x1 = 0.6151 | -0.000962 ± 0.000124
x1 = 0.7271 | -0.000831 ± 0.000124
x1 = 0.7998 | -0.000686 ± 0.000124
x1 = 0.8805 | -0.000439 ± 0.000122
x1 = 0.9576 | -0.000186 ± 0.00012

CCCC(=O)OC[C@H]1CO1 [R(-)-2,3-epoxypropyl butanoate]
Details | mass density [kg/m3]
[2] | 1036.3 ± 1

CCCC(=O)OC[C@@H]1CO1 [S-(-)-glycidyl butyrate]
Details | mass density [kg/m3]
[2] | 1029.7 ± 0.9
